According to patent publication US20240368078A1, “ARYL HETEROCYCLIC COMPOUNDS AS Kv1.3 POTASSIUM SHAKER CHANNEL BLOCKERS” (D.E. SHAW RESEARCH, LLC, priority 2021, published 2024):

Columns and labels:
Kv1.3 potassium channel = Kv1.3 potassium channel (Homo sapiens (Human), UniProt P22001); assay: Kv1.3 potassium channel blocker activity, automated whole-cell patch clamp in CHO-K1 cells stably expressing Kv1.3; assay type: cell-based; conditions: Patchliner patch clamp
Experimental: Example 21. Evaluation of Kv1.3 Potassium Channel Blocker Activities
This assay is used to evaluate the disclosed compounds' activities as Kv1.3 potassium channel blockers.
CHO-K1 cells stably expressing Kv1.3 were grown in DMEM containing 10% heat-inactivated FBS, 1 mM sodium pyruvate, 2 mM L-glutamine, and G418 (500 μg/ml). Cells were grown in culture flasks at 37° C. in a 5% C02-humidified incubator.
(§1) The cells were bathed in an extracellular solution containing 140 mM NaCl, 4 mM KCl, 2 mM CaCl2), 1 mM MgCl2, 5 mM glucose, 10 mM HEPES; pH adjusted to 7.4 with NaOH; 295-305 mOsm. The internal solution contained 50 mM KCl, 10 mM NaCl, 60 mM KF, 20 mM EGTA, 10 mM HEPES; pH adjusted to 7.2 with KOH; 285 mOsm. All compounds were dissolved in DMSO at 30 mM. Compound stock solutions were freshly diluted with external solution to concentrations of 30 nM, 100 nM, 300 nM, 1 μM, 3 μM, 10 μM, 30 μM and 100 μM. The highest content of DMSO (0.3%) was present in 100 μM.
The currents were evoked by applying 100 ms depolarizing pulses from −90 mV (holding potential) to +40 mV were applied with 0.1 Hz frequency. Control (compound-free) and compound pulse trains for each compound concentration applied contained 20 pulses. 10-second breaks were used between pulse trains (see Table A below).
Whole-cell current recordings and compound application were enabled by means of an automated patch clamp platform Patchliner (Nanion Technologies GmbH). EPC 10 patch clamp amplifier (HEKA Elektronik Dr. Schulze GmbH) along with Patchmaster software (HEKA Elektronik Dr. Schulze GmbH) was used for data acquisition. Data were sampled at 10 kHz without filtering. Passive leak currents were subtracted online using a P/4 procedure (HEKA Elektronik Dr. Schulze GmbH). Increasing compound concentrations were applied consecutively to the same cell without washouts in between. Total compound incubation time before the next pulse train was not longer than 10 seconds. Peak current inhibition was observed during compound equilibration.
(§2) AUC and peak values were obtained with Patchmaster (HEKA Elektronik Dr. Schulze GmbH). To determine IC50, the last single pulse in the pulse train corresponding to a given compound concentration was used. Obtained AUC and peak values in the presence of compound were normalized to control values in the absence of compound. Using Origin (OridinLab), IC50 was derived from data fit to Hill equation: Icompound/Icontrol=(100-A)/(1+([compound]/IC50)nH)+A, where IC50 value is the concentration at which current inhibition is half-maximal, [compound] is the applied compound concentration, A is the fraction of current that is not blocked and nH is the Hill coefficient.

hERG channel = hERG channel (Homo sapiens (Human), UniProt Q12809); assay: hERG electrophysiology, automated whole-cell patch clamp in CHO-K1 cells stably expressing hERG; assay type: cell-based; conditions: Patchliner patch clamp
Experimental: Example 22. Evaluation of hERG Activities
This assay is used to evaluate the disclosed compounds's inhibition activities against the hERG channel.
This assay is used to evaluate the disclosed compounds' inhibition activities against the hERG channel.
CHO-K1 cells stably expressing hERG were grown in Ham's F-12 Medium with glutamine containing 10% heat-inactivated FBS, 1% penicillin/streptomycin, hygromycin (100 μg/ml) and G418 (100 μg/ml). Cells were grown in culture flasks at 37° C. in a 5% CO2— humidified incubator.
as §1, with “Glucose,” for “glucose,”
The voltage protocol (see Table B) was designed to simulate voltage changes during a cardiac action potential with a 300 ms depolarization to +20 mV (analogous to the plateau phase of the cardiac action potential), a repolarization for 300 ms to −50 mV (inducing a tail current) and a final step to the holding potential of −80 mV. The pulse frequency was 0.3 Hz. Control (compound-free) and compound pulse trains for each compound concentration applied contained 70 pulses.
Whole-cell current recordings and compound application were enabled by means of an automated patch clamp platform Patchliner (Nanion). EPC 10 patch clamp amplifier (HEKA) along with Patchmaster software (HEKA Elektronik Dr. Schulze GmbH) was used for data acquisition. Data were sampled at 10 kHz without filtering. Increasing compound concentrations were applied consecutively to the same cell without washouts in between.
as §2, with “PEAK” for “peak”, “IC50” for “IC50,”, “Icompound/Icontrol=(100−A)/(1+([compound]/IC50)nH)+A,” for “Icompound/Icontrol=(100-A)/(1+([compound]/IC50)nH)+A,”, “IC50” for “IC50 value”

Sequence of hERG channel (Q12809 whole entry): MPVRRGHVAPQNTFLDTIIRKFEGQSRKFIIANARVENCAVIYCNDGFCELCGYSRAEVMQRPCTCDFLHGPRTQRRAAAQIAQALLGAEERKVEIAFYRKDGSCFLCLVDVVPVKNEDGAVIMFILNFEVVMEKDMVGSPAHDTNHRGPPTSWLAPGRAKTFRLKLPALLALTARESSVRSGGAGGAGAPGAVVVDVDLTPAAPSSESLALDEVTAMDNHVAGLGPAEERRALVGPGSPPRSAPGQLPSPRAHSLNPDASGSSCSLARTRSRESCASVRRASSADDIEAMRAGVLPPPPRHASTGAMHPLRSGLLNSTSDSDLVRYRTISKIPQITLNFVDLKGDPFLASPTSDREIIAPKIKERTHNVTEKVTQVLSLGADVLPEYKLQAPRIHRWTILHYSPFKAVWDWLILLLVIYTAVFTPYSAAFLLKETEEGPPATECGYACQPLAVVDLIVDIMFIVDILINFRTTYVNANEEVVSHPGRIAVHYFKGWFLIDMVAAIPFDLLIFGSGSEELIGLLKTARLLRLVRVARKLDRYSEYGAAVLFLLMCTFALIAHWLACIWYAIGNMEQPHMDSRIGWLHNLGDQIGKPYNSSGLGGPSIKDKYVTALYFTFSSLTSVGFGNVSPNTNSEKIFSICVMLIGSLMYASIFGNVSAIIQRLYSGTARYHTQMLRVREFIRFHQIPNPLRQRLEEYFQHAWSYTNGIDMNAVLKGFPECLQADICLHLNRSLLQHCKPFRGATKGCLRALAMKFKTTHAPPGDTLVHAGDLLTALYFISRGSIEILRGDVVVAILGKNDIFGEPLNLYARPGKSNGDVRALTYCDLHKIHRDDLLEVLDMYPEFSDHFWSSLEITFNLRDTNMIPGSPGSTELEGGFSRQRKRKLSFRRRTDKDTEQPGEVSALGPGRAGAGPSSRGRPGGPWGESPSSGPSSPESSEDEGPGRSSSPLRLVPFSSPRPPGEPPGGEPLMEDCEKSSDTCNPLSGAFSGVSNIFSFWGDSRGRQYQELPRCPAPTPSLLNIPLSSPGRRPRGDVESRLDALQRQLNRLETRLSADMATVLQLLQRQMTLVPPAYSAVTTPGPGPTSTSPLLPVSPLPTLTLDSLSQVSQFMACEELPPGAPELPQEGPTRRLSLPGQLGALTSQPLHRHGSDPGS
Sequence of Kv1.3 potassium channel (P22001 whole entry): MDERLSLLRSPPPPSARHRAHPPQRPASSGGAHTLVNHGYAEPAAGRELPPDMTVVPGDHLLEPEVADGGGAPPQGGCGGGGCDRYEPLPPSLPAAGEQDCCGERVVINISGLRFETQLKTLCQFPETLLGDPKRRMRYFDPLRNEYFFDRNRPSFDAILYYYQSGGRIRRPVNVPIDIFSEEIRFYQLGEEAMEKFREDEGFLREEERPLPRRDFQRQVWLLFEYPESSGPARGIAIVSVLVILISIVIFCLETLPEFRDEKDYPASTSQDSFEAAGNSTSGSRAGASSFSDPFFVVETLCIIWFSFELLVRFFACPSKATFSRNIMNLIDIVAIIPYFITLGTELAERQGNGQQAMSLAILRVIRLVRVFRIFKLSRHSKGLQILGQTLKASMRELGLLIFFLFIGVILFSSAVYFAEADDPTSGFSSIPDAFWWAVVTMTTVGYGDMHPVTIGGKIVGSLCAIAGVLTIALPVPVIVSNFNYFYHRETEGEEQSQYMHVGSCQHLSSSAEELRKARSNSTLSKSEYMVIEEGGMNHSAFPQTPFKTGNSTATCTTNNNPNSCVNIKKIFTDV

Row | Compound | IC50 (Kv1.3 potassium channel) | IC50 (hERG channel)
1 | C[C@H](CO)NC(=O)C[C@H]1CN[C@@H](c2c(O)ccc(Cl)c2Cl)C1 [Compound 63, 2-((3S,5R)-5-(2,3-dichloro-6-hydroxyphenyl)pyrrolidin-3-yl)-N-((R)-1-hydroxypropan-2-yl)acetamide] | < 0.1 µM | > 100 µM
2 | O=C(CO)NC[C@@H]1CN[C@@H](c2c(O)ccc(Cl)c2Cl)C1 [Compound 48, N-{[(3S,5R)-5-(2,3-dichloro-6-hydroxyphenyl)pyrrolidin-3-yl]methyl}-2-hydroxyacetamide] | < 1 µM | > 30 µM
3 | C[C@H](C(N)=O)[C@H]1CN[C@@H](c2c(O)ccc(Cl)c2Cl)C1 (single isomer, unassigned) [Compound 45] | < 0.1 µM | > 100 µM
4 | CC[C@@H](C(N)=O)[C@H]1CN[C@@H](c2c(O)ccc(Cl)c2Cl)C1 (single isomer, unassigned) [Compound 46] | < 1 µM | > 100 µM
5 | CN(CCO)C(=O)CC1CN[C@@H](c2c(O)ccc(Cl)c2Cl)C1 (stereo partly drawn) [Compound 35, 2-((5R)-5-(2,3-dichloro-6-hydroxyphenyl)pyrrolidin-3-yl)-N-(2-hydroxyethyl)-N-methylacetamide] | < 0.1 µM | > 30 µM
6 | C[C@@H](C(N)=O)[C@H]1CN[C@@H](c2c(O)ccc(Cl)c2Cl)C1 (single isomer, unassigned) [Compound 44] | < 1 µM | > 100 µM
7 | CNC(=O)C[C@H]1CN[C@@H](c2c(O)ccc(Cl)c2Cl)C1 [Compound 42, 2-((3S,5R)-5-(2,3-dichloro-6-hydroxyphenyl)pyrrolidin-3-yl)-N-methylacetamide] | < 0.1 µM | > 30 µM
8 | CC(C)(C(N)=O)[C@H]1CN[C@@H](c2c(O)ccc(Cl)c2Cl)C1 [Compound 52, 2-[(3S,5R)-5-(2,3-dichloro-6-hydroxyphenyl)pyrrolidin-3-yl]-2-methylpropanamide] | < 1 µM | > 30 µM
9 | O=C(CC1CN[C@@H](c2c(O)ccc(Cl)c2Cl)C1)N1CC(O)(CO)C1 (stereo partly drawn) [Compound 33, 2-((5R)-5-(2,3-dichloro-6-hydroxyphenyl)pyrrolidin-3-yl)-1-(3-hydroxy-3-(hydroxymethyl)azetidin-1-yl)ethan-1-one] | < 0.1 µM | > 100 µM
10 | NC(=O)CC1CN[C@@H](c2cc(Cl)c(Cl)cc2O)C1 (stereo partly drawn) [Compound 38, 2-((5R)-5-(4,5-dichloro-2-hydroxyphenyl)pyrrolidin-3-yl)acetamide] | < 1 µM | > 10 µM
11 | O=C(CC1CN[C@@H](c2c(O)ccc(Cl)c2Cl)C1)N1CC[C@H](O)C1 (stereo partly drawn) [Compound 40, 2-((5R)-5-(2,3-dichloro-6-hydroxyphenyl)pyrrolidin-3-yl)-1-((S)-3-hydroxypyrrolidin-1-yl)ethan-1-one] | < 1 µM | > 100 µM
12 | CN(C)C(=O)CC1CN[C@@H](c2c(O)ccc(Cl)c2Cl)C1 (stereo partly drawn) [Compound 37, 2-((5R)-5-(2,3-dichloro-6-hdyroxyphenyl)pyrrolidin-3-yl)-N,N-dimethylacetamide] | < 1 µM | > 30 µM
13 | CC(C)(O)CNC(=O)C[C@H]1CN[C@@H](c2c(O)ccc(Cl)c2Cl)C1 [Compound 66, 2-((3S,5R)-5-(2,3-dichloro-6-hydroxyphenyl)pyrrolidin-3-yl)-N-(2-hydroxy-2-methylpropyl)acetamide] | < 1 µM | > 100 µM
14 | NC(=O)[C@@H](CO)[C@H]1CN[C@@H](c2c(O)ccc(Cl)c2Cl)C1 (single isomer, unassigned) [Compound 76] | < 1 µM | > 100 µM
15 | CC[C@H](C(N)=O)[C@H]1CN[C@@H](c2c(O)ccc(Cl)c2Cl)C1 (single isomer, unassigned) [Compound 47] | < 0.1 µM | 100 µM
16 | O=C(C[C@H]1CN[C@@H](c2c(O)ccc(Cl)c2Cl)C1)N1CCC[C@@H](O)C1 [Compound 58, 2-((3S,5R)-5-(2,3-dichloro-6-hydroxyphenyl)pyrrolidin-3-yl)-1-((R)-3-hydroxypipeiridn-1-yl)ethan-1-one] | < 1 µM | > 30 µM
17 | COC[C@H](C(N)=O)[C@H]1CN[C@@H](c2c(O)ccc(Cl)c2Cl)C1 (single isomer, unassigned) [Compound 74] | < 1 µM | > 100 µM
18 | COC[C@@H](C(N)=O)[C@H]1CN[C@@H](c2c(O)ccc(Cl)c2Cl)C1 (single isomer, unassigned) [Compound 75] | < 1 µM | > 100 µM
19 | Oc1ccc(Cl)c(Cl)c1[C@H]1C[C@@H](Cc2cc[nH]n2)CN1 [Compound 55, 2-((2R,4S)-4-((1H-pyrazol-3-yl)methyl)pyrrolidin-2-yl)-3,4-dichlorophenol] | < 1 µM | > 10 µM
20 | Oc1ccc(Cl)c(Cl)c1[C@H]1C[C@@H](Cc2cn[nH]c2)CN1 [Compound 54, 3,4-dichloro-2-[(2R,4R)-4-(1H-pyrazol-4-ylmethyl)pyrrolidin-2-yl] phenol] | < 0.1 µM | > 10 µM
21 | C[C@@H](O)CNC(=O)C[C@H]1CN[C@@H](c2c(O)ccc(Cl)c2Cl)C1 [Compound 64, 2-((3S,5R)-5-(2,3-dichloro-6-hydroxyphenyl)pyrrolidiin-3-yl)-N-((R)-2-hydroxypropyl)acetamide] | < 0.1 µM | > 100 µM
22 | C[C@H](O)CNC(=O)C[C@H]1CN[C@@H](c2c(O)ccc(Cl)c2Cl)C1 [Compound 65, 2-((3S,5R)-5-(2,3-dichloro-6-hydroxyphenyl)pyrrolidin-3-yl)-N-((S)-2-hydroxypropyl)acetamide] | < 0.1 µM | > 100 µM
23 | O=C(C[C@H]1CN[C@@H](c2c(O)ccc(Cl)c2Cl)C1)N1CC[C@@H]1CO [Compound 67, 2-((3S,5R)-5-(2,3-dichloro-6-hydroxyphenyl)pyrrolidin-3-yl)-1-((R)-2-(hydroxymethyl)azetidin-1-yl)ethan-1-one] | < 1 µM | > 100 µM
24 | NC(=O)C[C@H]1CN[C@@H](c2c(O)ccc(Cl)c2Cl)C1 [Compound 31, 2-[(3S,5R)-5-(2,3-dichloro-6-hydroxyphenyl)pyrrolidin-3-yl]acetamide] | < 1 µM | > 100 µM
25 | CN(C)C(=O)C[C@H]1CN[C@@H](c2c(O)ccc(Cl)c2Cl)C1 [Compound 41, 2-((3S,5R)-5-(2,3-dichloro-6-hydroxyphenyl)pyrrolidin-3-yl)-N,N-dimethyalcetamide] | < 1 µM | > 30 µM
